In EP2724723A1, “Tegaserod for use in the treatment of nerve injuries” (Universitätsklinikum Hamburg-Eppendorf, priority 2012, dated 2014):

Assays:
[1] = test system: murine cerebellar granule neurons (cGNs), Schwann cells, and motoneurons; assay: In vitro neurite/process outgrowth, statements covering all cell types; format: cell-based, C57BL/6J mice
Protocol: (§1) Primary cultures of cerebellar neurons or Schwann cells were prepared from cerebellum or dorsal root ganglia of 7-day-old C57BL/6J mice as described in Mehanna et al. (2009), Brain, 132 (Pt 6): 1449-62 and Loers et al. (2005), J. Neurochem., 92(6): 1463-76. Motoneurons were prepared from E14 C57BL/6J mice as described in Simova et al. (2006), Ann. Neurol., 60(4): 430-437. In brief, 48-well plates were coated with 0.01% poly-L-lysine (PLL) or poly-L-ornithine (PLO) overnight at 4°C, washed twice with water and air-dried. Directly before use, plates were washed twice with PBS, and Schwann cells, cerebellar neurons (PLL) or motoneurons (PLO) were seeded at a density of 1.25 x 10^4 (Schwann cells and motoneurons) or 2.5 x 10^4 cells (cerebellar neurons) per well in 250 µl of corresponding serum-free culture medium. Soluble organic compounds were added to the culture 1 h after seeding in increasing concentrations. After maintenance for 24 h at 37°C, cells were fixed with 2.5% glutaraldehyde and stained with 1% methylene blue/toluidine blue in 1% borax. Morphological quantification of neurite or process lengths was performed as described in Mehanna et al. (2009), see above. Schwann cell processes and neurites of cerebellar neurons with a length of at least one cell body diameter were counted and total neurite or process length per cell was determined by counting 50 cells in each of two wells per experiment. At least three independent experiments were performed for each culture. Also, the activity of tegaserod with the PSA peptide mimic and the bacterial PSA analogue, colominic acid, on neurite and process extension experiments was compared.

[2] = test system: 735 anti PSA antibody; assay: Screening ELISA of the NIH Clinical Collection 1 Library for organic PSA mimetics; format: binding; conditions: 10 µM of library compound pre-incubated with 735 antibody; repeated three times
Protocol: To identify organic PSA mimetics the NIH Clinical Collection 1 Library was screened. PSA mimicking peptide (NTHTDPYIYPIDC; Mehanna et al., (2009); Brain 132 (Pt 6): 1449-1462.) coupled to catalase (3 µg/ml; 25 µl/well) was immobilized on the surface of 384-well flat bottom microtiter plates with high binding surface (Corning Life Sciences, Amsterdam, The Netherlands). Wells were washed with […], blocked with 1% bovine serum albumin for 1 h at room temperature. 735 anti PSA antibody (0.1 µg/ml; 25 µl/well) was incubated with PBS, PBS containing DMSO solvent control or PBS containing 10 µM of the organic compounds from the library for 1 h at room temperature and then added to the wells coated with […] coupled to catalase. As control for positive competition, 735 antibody was incubated with the PSA mimicking peptide (10 µM). After incubation for 1 h, wells were washed 10 times with PBS containing 0.05% Tween-20 (PBST), HRP-coupled secondary antibody (1:5,000 in PBS) was added for 1 h and after 10 more washes with PBST, binding of antibody was visualized by incubating wells with 25 µl of 0.4 mg/ml o-phenylenediamine dihydrochloride (Thermo Scientific) for 15 min. The reaction was stopped by addition of 25 µl 2.5 M H2SO4 and quantified using an ELISA reader (EnVision with Plateworks software, Perkin Elmer, Hamburg, Germany). […]

[3] = test system: regenerated femoral nerves; assay: Histology of the regenerated femoral nerve; format: in vivo, C57BL/6J mice; conditions: 15 weeks; for myelinated axons: vehicle control 78%; for average number of axons within regenerated nerves: vehicle control 432, unsevered 608
Protocol: (§2) Tegaserod was evaluated in a 2 mm femoral nerve defect of 12-week old C57BL/6J mice as previously described in Mehanna et al. (2009), see above. Briefly, mice were anesthetized and the femoral nerve of the left rear leg exposed. The nerve was bis-sected 3 mm proximal to the branching of the saphenous and motor branches, and the nerve ends were sutured 0.5 mm into a 3 mm polyethylene conduits with 0.58 mm inner diameter (Becton Dickinson), leaving an overall gap length of 2 mm. Conduits were filled with PuraMatrix peptide hydrogel (Becton Dickinson 354250) using 2x PBS as the gelation stimulant. Tegaserod was dissolved in the 2x PBS at concentrations of 500 nM and 5,000 nM, resulting in final concentrations of 250 nM and 2,500 nM once the PBS was combined 1:1 v/v with the PuraMatrix.
At the end of the recovery period, femoral nerves were fixed and histology was performed to assess nerve morphology within the regenerated region 1 mm into the 2 mm gap. Animals were perfused with 4% paraformadehyde and explanted nerves were post-fixed in osmium tetroxide and embedded in resin. One and 2 µm thick sections were cut into the center of the regenerated nerve and sections were stained with 1% toluidine blue and 1% borax. Sections were imaged with a Zeiss Axiocam, using 20x, 40x, and 100x objectives and AxioVision imaging software. ImageJ software was used to calculate total nerve area, number of axons, % of myelinated axons, and g-ratio as described Mehanna et al. (2009), see above.

[4] = test system: quadriceps muscle; assay: Quadriceps muscle mass after femoral nerve injury; format: in vivo, C57BL/6J mice; conditions: 15 week recovery, control group 111 mg
Protocol: as §2
The quadriceps muscle, which is solely innervated by the femoral nerve, was extracted from each mouse and weighed at the end of the 15 week recovery period. The quadriceps muscles were removed from the injured and uninjured hind limbs of the mice. The quadriceps femoris muscle was identified by first removing the skin overlying the cranial thigh. The muscle was bluntly dissected starting distally at the level of the patellar tendon, working proximally. […]

[5] = test system: murine motoneurons; assay: In vitro neurite outgrowth of motoneurons; format: cell-based, C57BL/6J mice; conditions: tegaserod, cisapride, GR113808 100 nM; colominic acid 3 µM; PSA mimicking peptide 30 µM; Figure 2B
Protocol: as §1

[H]/N=C(/NCCCCC)N/N=C/c1c[nH]c2ccc(OC)cc12 [tegaserod, (E)-but-2-enedioic acid; 1-[[(Z)-(5-methoxyindol-3-ylidene)methyl]amino]-2-pentylguanidine]
minimal effective concentration ([1]; Mus musculus, Neuron, 24 h, dose-response curve, Figure 2A, read-out: concentration at which an effect on neurite and process extension was shown): 0.001 µM
concentration of optimal effect on neurite and process extension ([1]; all cell types, Figure 2A): 100 nM
concentration of maximal stimulatory effects ([1]; neurite and process extension of neurons and Schwann cells): 10 to 250 nM
effect of overdosing / higher concentrations (in words) ([1]; neurons and Schwann cells): the stimulatory effect was reduced or even abolished
times more effective than colominic acid in stimulating process formation ([1]; neurons and Schwann cells): about 20 times
times more effective than the PSA mimicking peptide in stimulating process formation ([1]; neurons and Schwann cells): about 200 times
identification as organic compound that could potentially mimic PSA [2]: could potentially mimic PSA
myelinated axons ([3]; 250 nM): 88%
average number of axons within regenerated nerves ([3]; 250 nM): 589 axons
myelinated axons ([3]; 2,500 nM): 83%
average number of axons within regenerated nerves ([3]; 2,500 nM): 434 axons
average quadriceps muscle mass, injured limb ([4]; 250 nM, non-injured legs 208 mg): 165 mg
quadriceps muscle mass, injured limb ([4]; 2,500 nM, failed to reach statistical significance): 127 mg
effect on neurite extension of murine motoneurons (in words) [5]: significant stimulatory effect
